Experimental data: patent US10689377B2 (Mirati Therapeutics, Inc., priority 2017, dated 2020)

These compounds were tested against KRas G12C (Homo sapiens, UniProt P01116, G12C) (assay: Cellular inhibition of KRas G12C measured by Phospho-ERK in NCI-H358 cells). Conditions: pERK(Thr202/Tyr204) normalized with GAPDH, NCI-H358 cells, 3 hours; read-out: IC50.
Assay type: cell-based
Procedure, shortened: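 Readout is pERK(Thr202/Tyr204) immunofluorescence normalized to GAPDH, expressed as percent of DMSO control and fitted with a 4-parameter curve for IC50. Attached NCI-H358 cells received compound for 3 hours in 0.5% DMSO, followed by fixation and methanol permeabilization.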

Sequence of KRas G12C (P01116 1-188 isoform P01116-2 G12C): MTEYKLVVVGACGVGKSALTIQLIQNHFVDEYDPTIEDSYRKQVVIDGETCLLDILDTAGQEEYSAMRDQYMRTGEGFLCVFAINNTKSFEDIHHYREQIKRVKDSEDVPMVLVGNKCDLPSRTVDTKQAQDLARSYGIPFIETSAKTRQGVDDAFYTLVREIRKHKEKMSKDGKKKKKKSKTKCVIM

Compound | IC50
C=CC(=O)N1CCN(c2nc(OC[C@@H]3CCCN3C)nc3c2CCN(c2cccc4ccccc24)C3)C[C@H]1C [Example 201, 1-((R)-2-methyl-4-(2-(((S)-1-methylpyrrolidin-2-yl)methoxy)-7-(naphthalen-1-yl)-5,6,7,8-tetrahydropyrido[3,4-d]pyrimidin-4-yl)piperazin-1-yl)prop-2-en-1-one] | > 1000 nM
C=CC(=O)N1CCN(c2nc(OC[C@@H]3CCCN3C)nc3c2CCN(c2cc(O)cc4ccccc24)C3)[C@@H](C)C1 [Example 202, 1-((S)-4-(7-(3-hydroxynaphthalen-1-yl)-2-(((S)-1-methylpyrrolidin-2-yl)methoxy)-5,6,7,8-tetrahydropyrido[3,4-d]pyrimidin-4-yl)-3-methylpiperazin-1-yl)prop-2-en-1-one] | 0.1 to 1000 nM
C=CC(=O)N1CCN(c2nc(OC[C@H]3CCCN3C)nc3c2CCN(c2cc(O)cc4ccccc24)C3)[C@@H](C)C1 [Example 203, 1-((S)-4-(7-(3-hydroxynaphthalen-1-yl)-2-(((R)-1-methylpyrrolidin-2-yl)methoxy)-5,6,7,8-tetrahydropyrido[3,4-d]pyrimidin-4-yl)-3-methylpiperazin-1-yl)prop-2-en-1-one] | 0.1 to 1000 nM
C=CC(=O)N1CCN(c2nc(NC3CCN(C4CC4)CC3)nc3c2CCN(c2cc(O)cc4ccccc24)C3)CC1 [Example 204, 1-(4-(2-((1-cyclopropylpiperidin-4-yl)amino)-7-(3-hydroxynaphthalen-1-yl)-5,6,7,8-tetrahydropyrido[3,4-d]pyrimidin-4-yl)piperazin-1-yl)prop-2-en-1-one] | > 1000 nM
C=CC(=O)N1CCN(c2nc(OCCCN3CCOCC3)nc3c2CCN(c2c(C)ccc4[nH]ccc24)C3)CC1 [Example 209, 1-(4-(7-(5-methyl-1H-indol-4-yl)-2-(3-morpholinopropoxy)-5,6,7,8-tetrahydropyrido[3,4-d]pyrimidin-4-yl)piperazin-1-yl)prop-2-en-1-one] | > 1000 nM
C=CC(=O)N1CCN(c2nc(OC[C@@H]3CCCN3C)nc3c2CCN(c2ccccc2OC(F)(F)F)C3)CC1CC#N (stereo partly drawn) [Example 211, 2-(1-acryloyl-4-(2-(((S)-1-methylpyrrolidin-2-yl)methoxy)-7-(2-(trifluoromethoxy)phenyl)-5,6,7,8-tetrahydropyrido[3,4-d]pyrimidin-4-yl)piperazin-2-yl)acetonitrile] | 0.1 to 1000 nM
C=CC(=O)N1CCN(c2nc(OC[C@@H]3CCCN3C)nc3c2CCN(c2cnccc2C(F)(F)F)C3)CC1CC#N (stereo partly drawn) [Example 212, 2-(1-acryloyl-4-(2-(((S)-1-methylpyrrolidin-2-yl)methoxy)-7-(4-(trifluoromethyl)pyridin-3-yl)-5,6,7,8-tetrahydropyrido[3,4-d]pyrimidin-4-yl)piperazin-2-yl)acetonitrile] | 0.1 to 1000 nM
C=CC(=O)N1CCN(c2nc(OCCCN3CCOCC3)nc3c2CCN(c2cc(O)cc(C)c2C)C3)CC1 [Example 213, 1-(4-(7-(5-hydroxy-2,3-dimethylphenyl)-2-(3-morpholinopropoxy)-5,6,7,8-tetrahydropyrido[3,4-d]pyrimidin-4-yl)piperazin-1-yl)prop-2-en-1-one] | > 1000 nM
C=CC(=O)N1CCN(c2nc(OCCCN3CCOCC3)nc3c2CCN(c2cc(O)ccc2SC(F)(F)F)C3)CC1 [Example 214, 1-(4-(7-(5-hydroxy-2-((trifluoromethyl)thio)phenyl)-2-(3-morpholinopropoxy)-5,6,7,8-tetrahydropyrido[3,4-d]pyrimidin-4-yl)piperazin-1-yl)prop-2-en-1-one] | > 1000 nM
C=CC(=O)N1CCN(c2nc(OC(CO)CN3CCOCC3)nc3c2CCN(c2cc(O)cc4ccccc24)C3)CC1 (stereo not shown) [Example 217, 1-(4-(2-((1-hydroxy-3-morpholinopropan-2-yl)oxy)-7-(3-hydroxynaphthalen-1-yl)-5,6,7,8-tetrahydropyrido[3,4-d]pyrimidin-4-yl)piperazin-1-yl)prop-2-en-1-one] | > 1000 nM
C=CC(=O)N1CCN(c2nc(OC[C@@H]3C[C@@H](O)CN3C)nc3c2CCN(c2cccc4ccccc24)C3)CC1CC#N (stereo partly drawn) [Example 218, 2-(1-acryloyl-4-(2-(((2S,4R)-4-hydroxy-1-methylpyrrolidin-2-yl)methoxy)-7-(naphthalen-1-yl)-5,6,7,8-tetrahydropyrido[3,4-d]pyrimidin-4-yl)piperazin-2-yl)acetonitrile] | 0.1 to 1000 nM
C=CC(=O)N1CCN(c2nc(OCC3CN(C)CCN3C)nc3c2CCN(c2cc(O)cc4ccccc24)C3)CC1 (stereo not shown) [Example 219, 1-(4-(2-((1,4-dimethylpiperazin-2-yl)methoxy)-7-(3-hydroxynaphthalen-1-yl)-5,6,7,8-tetrahydropyrido[3,4-d]pyrimidin-4-yl)piperazin-1-yl)prop-2-en-1-one] | > 1000 nM
C=CC(=O)N1CCN(c2nc(OC[C@@H]3C[C@H](F)CN3C)nc3c2CCN(c2cccc4ccccc24)C3)CC1CC#N (stereo partly drawn) [Example 221, 2-(1-acryloyl-4-(2-(((2S,4S)-4-fluoro-1-methylpyrrolidin-2-yl)methoxy)-7-(naphthalen-1-yl)-5,6,7,8-tetrahydropyrido[3,4-d]pyrimidin-4-yl)piperazin-2-yl)acetonitrile] | 0.1 to 1000 nM
C=CC(=O)N1CCN(c2nc(OC[C@@H]3C[C@H](OC)CN3C)nc3c2CCN(c2cccc4ccccc24)C3)CC1CC#N (stereo partly drawn) [Example 222, 2-(1-acryloyl-4-(2-(((2S,4S)-4-methoxy-1-methylpyrrolidin-2-yl)methoxy)-7-(naphthalen-1-yl)-5,6,7,8-tetrahydropyrido[3,4-d]pyrimidin-4-yl)piperazin-2-yl)acetonitrile] | 0.1 to 1000 nM
C=CC(=O)N1CCN(c2nc(OC[C@@H]3CN(C)CCN3)nc3c2CCN(c2cccc4ccccc24)C3)CC1CC#N (stereo partly drawn) [Example 223, 2-(1-acryloyl-4-(2-(((S)-4-methylpiperazin-2-yl)methoxy)-7-(naphthalen-1-yl)-5,6,7,8-tetrahydropyrido[3,4-d]pyrimidin-4-yl)piperazin-2-yl)acetonitrile] | 0.1 to 1000 nM
C=CC(=O)N1CCN(c2nc(OC[C@H]3CN(C)CCN3)nc3c2CCN(c2cccc4ccccc24)C3)CC1CC#N (stereo partly drawn) [Example 224, 2-(1-acryloyl-4-(2-(((R)-4-methylpiperazin-2-yl)methoxy)-7-(naphthalen-1-yl)-5,6,7,8-tetrahydropyrido[3,4-d]pyrimidin-4-yl)piperazin-2-yl)acetonitrile] | 0.1 to 1000 nM
C=CC(=O)N1CCN(c2nc(OC[C@@H]3CCCN3C)nc3c2CCN(c2cc(F)ccc2OC(F)(F)F)C3)CC1CC#N (stereo partly shown) [Example 225] | 0.1 to 1000 nM
C=CC(=O)N1CCN(c2nc(OC[C@@H]3CCCN3C)nc3c2CCN(c2cccnc2C(F)(F)F)C3)CC1CC#N (stereo partly drawn) [Example 226, 2-(1-acryloyl-4-(2-(((S)-1-methylpyrrolidin-2-yl)methoxy)-7-(2-(trifluoromethyl)pyridin-3-yl)-5,6,7,8-tetrahydropyrido[3,4-d]pyrimidin-4-yl)piperazin-2-yl)acetonitrile] | 0.1 to 1000 nM
C=CC(=O)N1CCN(c2nc(OC[C@@H]3CCCN3C)nc3c2CCN(c2ccccc2F)C3)CC1CC#N (stereo partly drawn) [Example 227, 2-(1-acryloyl-4-(7-(2-fluorophenyl)-2-(((S)-1-methylpyrrolidin-2-yl)methoxy)-5,6,7,8-tetrahydropyrido[3,4-d]pyrimidin-4-yl)piperazin-2-yl)acetonitrile] | 0.1 to 1000 nM
